Assay results published in US12201625B2, “Single nucleotide polymorphic alleles of human DP-2 gene for detection of susceptibility to hair growth inhibition by PGD2” (THE TRUSTEES OF THE UNIVERSITY OF PENNSYLVANIA, priority 2015, dated 2025).

Assays:
mouse hair follicles = settings: cited from earlier work
human hair follicles [1] = settings: cited from earlier work
human hair follicles [2] = assay: Hair follicle organ (explant) culture, growth over seven days; assay type: cell-based
From the text: Tissue: Scalp was obtained from normally discarded human skin samples from CHTN and from men and women undergoing hair transplantation (IRB exempted study Protocol #818053). Hair follicle organ culture: Hair follicles were microdissected from discarded tissues from hair transplant patients and cultured for seven days as described by Philpott et al. (J. Dermatol. Sci. Suppl: S55-72. (1994)) in the presence or absence of PGD2 and/or DP-2 antagonist, with a change of culture medium every two days. Hair follicles were photographed at the beginning and end of the culture period. Hair follicle growth was measured from the photographs using Image J software.

C57BL mice = assay: Topical application to depilated back skin of mice, hair cycle stage and hair length; assay type: in vivo, mouse
Description: Animal studies: The back skins of C57BL mice at 6-7 week were depilated. DP-2 antagonists were dissolved in 95% EtOH/2% Glycerol/3% PEG. 100 μL of each compound was spread on the shaved back skin once daily for 2 weeks starting from day 8 post depilation. At day 22 post depilation hair shafts were plucked for hair length measurement and skins were harvested for histological assessment of hair cycle stages.

[3] = system: hair follicle keratinocytes; assay: Immunofluorescence staining of cultured hair follicles for Ki67 and active caspase 3; assay type: cell-based, human
Description: Immunostaining: Immunofluorescence analysis with anti-Ki67 and anti-Caspase-3 was performed on cryosections of cultured hair follicles or whole mount hair follicles fixed in 4% PFA. Images were photographed with Leica fluorescence microscope.

[4] = topical once per day for two weeks, day 22 post depilation

| SMILES | hair growth (mouse hair follicles) | hair growth (human hair follicles [1]) | anti-PGD2 activity at high doses (human hair follicles [2]; 99.5% pure preparation of AM211, FIG. 3B) | rescue of hair follicles from growth inhibition by PGD2 (human hair follicles [2]; AM211 at 10 nM, PGD2 10 μM, 7 days) | anti-PGD2 effect at high doses (human hair follicles [2]; AM211 preparation purified to 95% homogeneity, FIG. 3A) | hair follicles entering catagen (hair cycle stage) (C57BL mice; topical once per day for two weeks from day 8 post depilation, harvested day 22) | hair shaft length (C57BL mice; [4]) | skin area with hair follicles continuing to grow (C57BL mice; [4]) | patients whose hair follicles exhibited PGD2-mediated growth inhibition (human hair follicles [2]; Group 1, of 35 patients tested) | patients whose hair follicles exhibited PGD2-mediated growth inhibition (human hair follicles [2]; Group 2, of 65 patients tested) | patients whose hair follicles exhibited PGD2-mediated growth inhibition (human hair follicles [2]; Groups 1 and 2 combined, 100 samples) | growth of human hair follicles in explant culture (human hair follicles [2]; PGD2 10 μM added to culture medium, 7 days) | inhibitory effect on hair growth, dose dependence (human hair follicles [2]; explant culture, FIG. 1B) | apoptosis of hair follicle keratinocytes (active caspase 3) [3] | proliferation of hair follicle keratinocytes (Ki67) [3] |
| --- | --- | --- | --- | --- | --- | --- | --- | --- | --- | --- | --- | --- | --- | --- | --- |
| CCCCC/C=C/C=C1/C(=O)C=C[C@@H]1C/C=C\CCCC(=O)O [15-dPGJ2, 15-deoxy-D12,14-prostaglandin J2] | inhibit hair growth | inhibit hair growth |  |  |  |  |  |  |  |  |  |  |  |  |  |
| CCN(Cc1cc(C(F)(F)F)ccc1-c1cc(CC(=O)O)ccc1OC)C(=O)NCc1ccccc1 [AM211] |  |  | sustained anti-PGD2 activity | rescued hair follicles from the inhibition by PGD2 | reduction in anti-PGD2 effect | dose-dependent delay in hair follicles entering catagen | longer hair shaft | larger area with hair follicles continuing to grow |  |  |  |  |  |  |  |
| CCCCC[C@H](O)/C=C/[C@H]1C(=O)C[C@H](O)[C@@H]1C/C=C\CCCC(=O)O [PGD2, prostaglandin D2] | inhibit hair growth | inhibit hair growth |  |  |  |  |  |  | 21 | 31 | 52 | severely inhibited | dose-dependent manner | promoted apoptosis | suppressed proliferation |
